The test system of the assay is cGMP receptor protein. Put plainly: Inducible GFP expression with cGMP added directly as inducing agent, without guanylyl cyclase. The assay is classed as cell-based, Rhodospirillum centenum. The note with it: cGMP 500 μM in 0.1% DMSO, 6 hours; pTrc99a-P-CRP + pPRO (0896-GFPuv)3. An excerpt: According to an inducible expression system, the target gene product is generally expressed in a large amount when there are internal/external inducing agents (chemicals, heat, oxygen, osmotic pressure, or the like) as a signal, and it is widely used in various fields. The most commonly used inducible system is a system in which IPTG is used as an inducing agent. However, being a chemically synthesized inducing agent, it is toxic to cells and, by producing an excess amount of proteins within a short time, a metabolic burden is stressful to the host, and thus it may work as a growth-inhibiting factor. […] To do so, guanylyl cyclase which converts GTP to cGMP molecule was removed, and cGMP was added as an inducing agent to a medium and the level of gene expression was determined. […]
pTrc99a-Cyc-P-CRP plasmid was treated with restriction enzymes BamHI and HindIII to remove the polynucleotide encoding the guanylyl cyclase and according to treatment with a Klenow fragment, self-ligation was induced to complete pTrc99a-P-CRP construct. […] After inoculation to have 1% concentration of the original culture (15 ml), when the absorbance (OD600) of the culture reaches 0.5, cGMP dissolved in 0.1% DMSO was added to 500 μM and expression of the green fluorescent protein was induced for 6 hours. […]

One compound from patent US9963708B2, “Recombinant vector for foreign gene expression without biological circuit interference of host cell and uses thereof” (INDUSTRY FOUNDATION OF CHONNAM NATIONAL UNIVERSITY, priority 2014, dated 2018) can be followed below.

Molecules are shown by their SMILES.

Take `Nc1nc2c(ncn2[C@@H]2O[C@@H]3COP(=O)(O)O[C@H]3[C@H]2O)c(=O)[nH]1` [cGMP, cyclic guanosine monophosphate]: the “expression of the green fluorescent protein induced by cGMP” value is reported as “there was indeed expression of the green fluorescent protein”.
